Assay results taken from ChEMBL document CHEMBL1127262, “Novel HIV01 protease inhibitors containing A -hydroxy sulfide isostere” (Bioorg Med Chem Lett, 1994).
≈ marks a conversion by molar mass, not a printed value.

Assays:
MT2 = assay: Compound was tested for whole cell antiviral activity against MT2 cell lines; type: functional, cell-based; details: Homo sapiens
CCRF-CEM = assay: Compound was tested for whole cell antiviral activity against CEM cell lines; type: functional, cell-based; details: Homo sapiens
[1] = target: Human immunodeficiency virus type 1 protease (Human immunodeficiency virus 1, UniProt Q72874); assay: Compound was tested for inhibitory activity against isolated HIV-1 protease
[2] = target: Human immunodeficiency virus type 1 protease (Human immunodeficiency virus 1) (UniProt Q72874); assay: Percent inhibition against isolated HIV-1 protease at a concentration of 1 ug/ml

Row | IC50 (MT2) [mg/L] | IC50 (CCRF-CEM) [mg/L] | IC50 [1] [µM] | inhibition [2] [%] | SMILES
1 | 0.0317 (≈ 0.052 µM) | 0.0137 (≈ 0.0224 µM) | – | – | CC(C)(C)NC(=O)c1ccccc1C[C@@H](O)[C@H](Cc1ccccc1)NC(=O)[C@H](CC(N)=O)NC(=O)c1ccc2ccccc2n1
2 | – | – | 0.509 | – | CC(C)(C)NC(=O)c1ccccc1S(=O)(=O)C[C@@H](O)[C@H](Cc1ccccc1)NC(=O)[C@H](CC(N)=O)NC(=O)c1ccc2ccccc2n1
3 | 4.38 (≈ 6.82 µM) | 4.99 (≈ 7.78 µM) | 0.0561 | – | CC(C)(C)NC(=O)c1ccccc1SC[C@H](O)[C@H](Cc1ccccc1)NC(=O)[C@H](CC(N)=O)NC(=O)c1ccc2ccccc2n1
4 | – | – | – | 28 | CC(C)(C)NC(=O)c1ccccc1[S+]([O-])C[C@@H](O)[C@H](Cc1ccccc1)NC(=O)[C@H](CC(N)=O)NC(=O)c1ccc2ccccc2n1 (stereo in doubt; 16b)
5 | – | – | 0.208 | – | CC(C)(C)NC(=O)c1ccccc1SC[C@@H](O)[C@H](Cc1ccccc1)NC(=O)[C@H](Cc1c[nH]cn1)NC(=O)c1ccc2ccccc2n1
6 | – | – | – | 69 | CC(C)(C)NC(=O)c1ccccc1[S+]([O-])C[C@@H](O)[C@H](Cc1ccccc1)NC(=O)[C@H](CC(N)=O)NC(=O)c1ccc2ccccc2n1 (stereo in doubt; 16a)
7 | 0.41 (≈ 0.639 µM) | 0.48 (≈ 0.748 µM) | 0.0134 | – | CC(C)(C)NC(=O)c1ccccc1SC[C@@H](O)[C@H](Cc1ccccc1)NC(=O)[C@H](CC(N)=O)NC(=O)c1ccc2ccccc2n1
